Consider two compounds from article PMC10450872 (ACS Central Science, 2023).

In general, Emax refers to the greatest response seen or fitted, relative to the assay's reference. As a reminder, the EC50 is the concentration giving half of the maximal effect.

SMILES strings stand for the structures. Several values for one entry are separate records, joined by “and”; a condition that tells them apart may be missing. Identical values can stand only once.

Assay [1] has as its target T1, hKOR (Homo sapiens, UniProt P41145).
T1 construct: β-galactosidase enzyme fragment for EFC (ProLink tag of the PathHunter system; name and presence on the receptor from own knowledge); host or cells: U2OS-β-arrestin2-EFC-hKOR (PathHunter) cells
The assay is described as follows: cell-based. As to conditions: for Emax: read-out: βarrestin2 Emax; for EC50: βarrestin2 pEC50.

Another assay addresses T2, hKOR (OPRK1) (Homo sapiens, UniProt P41145).
T2 construct: 3HA (triple haemagglutinin tag); expressed in transfected cells
The experiment in a line: cell-based. The following applies: for Emax: CHO, read-out: cAMP Emax.

In assay [2] the target is T1, hKOR. Format: cell-based.
In a further assay the target is T3, human MOR (OPRM1) (Homo sapiens, UniProt P35372).
T3 construct: expressed in transfected cells
It is filed as cell-based.

Where [3] appears, read: mean EC50 of inhibition of forskolin-stimulated cAMP accumulation via KOR.
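Throughout, for Emax: 100% = maximum response to 10 µM U69,593.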

T2 sequence (P41145 whole entry): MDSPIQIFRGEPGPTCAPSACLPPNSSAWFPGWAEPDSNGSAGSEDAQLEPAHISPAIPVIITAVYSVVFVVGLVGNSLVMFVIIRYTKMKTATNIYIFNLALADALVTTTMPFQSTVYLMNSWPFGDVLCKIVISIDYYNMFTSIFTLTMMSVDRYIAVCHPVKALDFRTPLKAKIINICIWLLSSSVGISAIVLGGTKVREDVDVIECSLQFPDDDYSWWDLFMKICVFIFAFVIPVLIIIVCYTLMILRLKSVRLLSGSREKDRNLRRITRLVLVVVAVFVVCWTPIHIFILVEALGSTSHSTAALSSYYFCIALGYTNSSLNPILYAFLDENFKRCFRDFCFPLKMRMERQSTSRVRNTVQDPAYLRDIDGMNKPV
T1 sequence (P41145 whole entry, the tested form may be a part): as the sequence (P41145 whole entry) above
T3 sequence (P35372 whole entry): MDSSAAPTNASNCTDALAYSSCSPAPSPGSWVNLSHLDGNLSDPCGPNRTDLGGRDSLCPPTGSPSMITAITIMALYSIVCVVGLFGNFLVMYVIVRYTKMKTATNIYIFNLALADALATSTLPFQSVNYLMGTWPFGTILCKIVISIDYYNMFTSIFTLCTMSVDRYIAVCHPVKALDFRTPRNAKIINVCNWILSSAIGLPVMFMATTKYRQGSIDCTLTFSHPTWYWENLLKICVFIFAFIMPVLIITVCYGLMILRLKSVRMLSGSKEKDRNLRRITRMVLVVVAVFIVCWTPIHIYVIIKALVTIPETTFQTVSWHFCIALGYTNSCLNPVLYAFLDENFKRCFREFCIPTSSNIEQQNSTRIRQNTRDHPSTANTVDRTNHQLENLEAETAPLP

Take `COC(=O)C1CC(OC(C)=O)C(=O)C2C3CC(c4ccccc4)CC(=NO)C3CCC12C` (stereo not drawn) [compound 37]: the values for the Emax on hKOR [1] and on hKOR (OPRK1) were 80% and 105%, respectively. The EC50 on hKOR [1] was 42700 pM; at hKOR (OPRK1) (cAMP pEC50), 417 pM; on hKOR (OPRK1) (setting [3]) it was 400 pM. The “Bias Factor” value on hKOR [2] is 8.60 and 7.4–9.8. The “ΔΔLogτ/KA (cAMP/βarr2)” value at hKOR [2] amounted to 0.116. For the same compound, the “selectivity for KOR over MOR” value on human MOR (OPRM1) was “high selectivity for KOR over MOR was also preserved”.

In the case of `COC(=O)C1CC(OC(C)=O)C(=O)C2C3CC(c4ccoc4)CC(=NO)C3CCC12C` (stereo not drawn) [compound 36], the Emax came out at 83% at hKOR [1] and 105% on hKOR (OPRK1). The figures for the EC50 at hKOR [1], on hKOR (OPRK1) (cAMP pEC50) and on hKOR (OPRK1) (setting [3]) were 12900 pM, 347 pM and 400 pM, respectively. The “Bias Factor” value on hKOR [2] was 2.66. For the same compound, the “ΔΔLogτ/KA (cAMP/βarr2)” value at hKOR [2] came to 0.375.
